Data from PubChem BioAssay AID342 (DTP/NCI, 2004).
Where “and” joins values, the source holds several entries; their conditions need not be identical. Identical values can stand only once.

Tested on: Swiss mice, Sarcoma 180 sc, mean tumor weight T/C
Experiment: NCI In Vivo Anticancer Drug Screen. Data for tumor model Sarcoma 180 (subcutaneous) in Swiss mice
Details: endpoint: mean tumor weight, higher = larger tumour
Method in brief: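 Antitumor activity is assessed in mice with transplantable tumors. Treated (T) and vehicle control (C) groups are compared on survival or tumor size.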

[1] = dose: 100.0 mg/kg/injection, schedule: Q01DX007 (ip), vehicle: saline
[2] = dose: 200.0 mg/kg/injection, schedule: Q01DX007 (ip), vehicle: saline

With `CC1OC2CC(=O)OC2C2=C1C(=O)c1c(O)c3c(c(O)c1C2=O)C1CC(O)C3(O)C(C)O1` (stereo unspecified) the T/C (dose: 0.01 mg/kg/injection, schedule: Q01DX007 (ip), vehicle: saline) was 114 % of control, the T/C (dose: 0.03 mg/kg/injection, schedule: Q01DX007 (ip), vehicle: saline) was 112 % of control and the T/C (dose: 0.1 mg/kg/injection, schedule: Q01DX007 (ip), vehicle: saline) was 112 % of control. For the same compound, the T/C (dose: 0.2 mg/kg/injection, schedule: Q01DX007 (ip), vehicle: saline) was 113 % of control, the T/C (dose: 0.4 mg/kg/injection, schedule: Q01DX007 (ip), vehicle: saline) was 116 % of control and the T/C (dose: 0.8 mg/kg/injection, schedule: Q01DX007 (ip), vehicle: saline) was 99 % of control. The T/C (dose: 1.6 mg/kg/injection, schedule: Q01DX007 (ip), vehicle: saline) was 94 % of control, the T/C (dose: 6.4 mg/kg/injection, schedule: Q01DX007 (ip), vehicle: saline) was 79 % of control and the T/C (dose: 12.0 mg/kg/injection, schedule: Q01DX007 (ip), vehicle: saline) was 88 % of control. For the same compound, the T/C (dose: 12.8 mg/kg/injection, schedule: Q01DX007 (ip), vehicle: saline) was 64 % of control and the T/C (dose: 24.0 mg/kg/injection, schedule: Q01DX007 (ip), vehicle: saline) was 61 % of control.

`OCCOCC(F)(F)F` was tested, and the T/C (dose: 125.0 mg/kg/injection, schedule: Q01DX007 (ip), vehicle: saline) was 100 % of control, the T/C (dose: 250.0 mg/kg/injection, schedule: Q01DX007 (ip), vehicle: saline) was 101 % of control and the T/C (dose: 500.0 mg/kg/injection, schedule: Q01DX007 (ip), vehicle: saline) was 63 % of control.

In the case of `O=c1[nH]cc(N(CCCl)CCCl)c(=O)[nH]1`, the T/C (dose: 0.2 mg/kg/injection, schedule: Q01DX007 (ip), vehicle: carboxymethylcellulose (CMC)) is reported as 104 % of control, the T/C (dose: 0.31 mg/kg/injection, schedule: Q#A X014 (ip), vehicle: carboxymethylcellulose (CMC)) is reported as 51 % of control and the T/C (dose: 0.32 mg/kg/injection, schedule: Q#A X014 (ip), vehicle: carboxymethylcellulose (CMC)) is reported as 65 % of control. For the same compound, the T/C (dose: 0.4 mg/kg/injection, schedule: Q01DX007 (ip), vehicle: carboxymethylcellulose (CMC)) was 88 % of control, the T/C (dose: 0.4 mg/kg/injection, schedule: Q#A X014 (ip), vehicle: carboxymethylcellulose (CMC)) was 67 % of control and the T/C (dose: 0.53 mg/kg/injection, schedule: Q#A X014 (ip), vehicle: carboxymethylcellulose (CMC)) was 67 % of control. The T/C (dose: 0.62 mg/kg/injection, schedule: Q#A X014 (ip), vehicle: carboxymethylcellulose (CMC)) was 32 % of control, the T/C (dose: 0.64 mg/kg/injection, schedule: Q01DX007 (ip), vehicle: carboxymethylcellulose (CMC)) was 85 % of control and the T/C (dose: 0.75 mg/kg/injection, schedule: Q01DX007 (ip), vehicle: saline) was 85 % of control. The T/C (dose: 0.8 mg/kg/injection, schedule: Q01DX007 (ip), vehicle: carboxymethylcellulose (CMC)) was 62 % of control and 76 % of control, the T/C (dose: 0.8 mg/kg/injection, schedule: Q#A X014 (ip), vehicle: carboxymethylcellulose (CMC)) was 41 % of control and the T/C (dose: 1.06 mg/kg/injection, schedule: Q01DX007 (ip), vehicle: carboxymethylcellulose (CMC)) was 51 % of control. The T/C (dose: 1.5 mg/kg/injection, schedule: Q01DX007 (ip), vehicle: saline) was 60 % of control, the T/C (dose: 1.5 mg/kg/injection, schedule: Q#A X014 (ip), vehicle: alkali diluted with saline) was 21 % of control and the T/C (dose: 1.6 mg/kg/injection, schedule: Q01DX007 (ip), vehicle: carboxymethylcellulose (CMC)) was 21 % of control.

`O=[N+]([O-])c1cccc2nsnc12` was tested, and the T/C (dose: 12.5 mg/kg/injection, schedule: Q01DX007 (ip), vehicle: carboxymethylcellulose (CMC)) was 114 % of control and the T/C (dose: 25.0 mg/kg/injection, schedule: Q01DX007 (ip), vehicle: carboxymethylcellulose (CMC)) was 174 % of control.

For `CN(C)[C@@H]1C(=O)C(C(=O)NCNC(CO)(CO)CO)=C(O)[C@@]2(O)C(=O)C3=C(O)c4c(O)cccc4[C@@](C)(O)[C@H]3C[C@@H]12`, the T/C (dose: 55.0 mg/kg/injection, schedule: Q#A X014 (ip), vehicle: saline) was 65 % of control, the T/C (dose: 83.0 mg/kg/injection, schedule: Q#A X014 (ip), vehicle: saline) was 93 % of control and the T/C (dose: 100.0 mg/kg/injection, schedule: Q01DX007 (ip), vehicle: methylcellulose (MC)) was 83 % of control. The T/C [1] was 119 % of control, the T/C (dose: 125.0 mg/kg/injection, schedule: Q#A X014 (ip), vehicle: saline) was 52 % of control and the T/C (dose: 140.0 mg/kg/injection, schedule: Q01DX007 (ip), vehicle: methylcellulose (MC)) was 62 % of control. The T/C (dose: 140.0 mg/kg/injection, schedule: Q01DX007 (ip), vehicle: saline) was 83 % of control, the T/C (dose: 210.0 mg/kg/injection, schedule: Q01DX007 (ip), vehicle: methylcellulose (MC)) was 38 % of control and the T/C (dose: 210.0 mg/kg/injection, schedule: Q01DX007 (ip), vehicle: other) was 86 % of control. The T/C (dose: 210.0 mg/kg/injection, schedule: Q01DX007 (ip), vehicle: saline) was 65 % of control and the T/C (dose: 320.0 mg/kg/injection, schedule: Q01DX007 (ip), vehicle: methylcellulose (MC)) was 33 % of control.

`CC(=O)Nc1cc2oc3ccccc3c2cc1[N+](=O)[O-]` was tested, and the T/C (dose: 220.0 mg/kg/injection, schedule: Q01DX007 (ip), vehicle: methylcellulose (MC)) was 67 % of control, the T/C (dose: 335.0 mg/kg/injection, schedule: Q01DX007 (ip), vehicle: methylcellulose (MC)) was 67 % of control and the T/C (dose: 400.0 mg/kg/injection, schedule: Q01DX007 (ip), vehicle: methylcellulose (MC)) was 72 % of control. For the same compound, the T/C (dose: 500.0 mg/kg/injection, schedule: Q01DX007 (ip), vehicle: methylcellulose (MC)) was 52 % of control and the T/C (dose: 600.0 mg/kg/injection, schedule: Q01DX007 (ip), vehicle: methylcellulose (MC)) was 77 % of control.

For `Cc1ccccn1`, the T/C [2] was 87 % of control and the T/C (dose: 400.0 mg/kg/injection, schedule: Q01DX007 (ip), vehicle: saline) was 151 % of control.

With `Cc1[nH]ccc2c(C)c3nc4ccccc4c3cc12` the T/C (dose: 25.0 mg/kg/injection, schedule: Q01DX007 (ip), vehicle: water) was 171 % of control, the T/C (dose: 50.0 mg/kg/injection, schedule: Q01DX007 (ip), vehicle: water) was 122 % of control and the T/C (dose: 100.0 mg/kg/injection, schedule: Q01DX007 (ip), vehicle: water) was 116 % of control. The T/C (dose: 200.0 mg/kg/injection, schedule: Q01DX007 (ip), vehicle: water) was 42 % of control.

In the case of `NC(=O)c1cn(C2OC(CO)C(O)C2O)c2ncnc(N)c12` (stereo unspecified), the T/C (dose: 0.5 mg/kg/injection, schedule: Q01DX007 (ip), vehicle: carboxymethylcellulose (CMC)) is reported as 87 % of control.

`C[C@]12CC[C@@H]3c4ccc(OC(=O)c5ccccc5)cc4CC[C@H]3[C@@H]1CC[C@@H]2O` was tested, and the T/C (dose: 125.0 mg/kg/injection, schedule: Q01DX007 (sc), vehicle: steriod suspending solution) was 47 % of control, the T/C (dose: 250.0 mg/kg/injection, schedule: Q01DX007 (sc), vehicle: steriod suspending solution) was 55 % of control and the T/C (dose: 400.0 mg/kg/injection, schedule: Q01DX007 (sc), vehicle: steriod suspending solution) was 58 % of control and 83 % of control. The T/C (dose: 666.0 mg/kg/injection, schedule: Q01DX007 (sc), vehicle: steriod suspending solution) was 59 % of control and 62 % of control.

`COc1cccc2c1-c1ccccc1C2` was tested, and the T/C (dose: 62.5 mg/kg/injection, schedule: Q01DX007 (ip), vehicle: carboxymethylcellulose (CMC)) was 151 % of control and the T/C (dose: 250.0 mg/kg/injection, schedule: Q01DX007 (ip), vehicle: carboxymethylcellulose (CMC)) was 114 % of control.

With `C=CCSc1ncnc2c1ncn2C1OC(CO)C(O)C1O` (stereo unspecified) the T/C (dose: 25.0 mg/kg/injection, schedule: Q01DX007 (ip), vehicle: saline) was 80 % of control and 83 % of control, the T/C [1] was 35 % of control and 52 % of control and the T/C [2] was 34 % of control and 49 % of control.

With `C=CCNc1ccc(C)cc1` the T/C (dose: 30.0 mg/kg/injection, schedule: Q01DX007 (ip), vehicle: carboxymethylcellulose (CMC)) was 72 % of control and 88 % of control, the T/C (dose: 55.0 mg/kg/injection, schedule: Q01DX007 (ip), vehicle: carboxymethylcellulose (CMC)) was 86 % of control and the T/C (dose: 69.0 mg/kg/injection, schedule: Q01DX007 (ip), vehicle: carboxymethylcellulose (CMC)) was 109 % of control. For the same compound, the T/C (dose: 83.0 mg/kg/injection, schedule: Q01DX007 (ip), vehicle: carboxymethylcellulose (CMC)) was 76 % of control, the T/C (dose: 105.0 mg/kg/injection, schedule: Q01DX007 (ip), vehicle: carboxymethylcellulose (CMC)) was 76 % of control and 83 % of control and the T/C (dose: 125.0 mg/kg/injection, schedule: Q01DX007 (ip), vehicle: carboxymethylcellulose (CMC)) was 26 % of control. For the same compound, the T/C (dose: 157.0 mg/kg/injection, schedule: Q01DX007 (ip), vehicle: carboxymethylcellulose (CMC)) was 94 % of control.

With `CCN(CC)c1ccc2cc3ccc(=[N+](CC)CC)cc-3oc2c1` the T/C (dose: 0.42 mg/kg/injection, schedule: Q#A X014 (ip), vehicle: carboxymethylcellulose (CMC)) was 84 % of control, the T/C (dose: 0.83 mg/kg/injection, schedule: Q#A X014 (ip), vehicle: carboxymethylcellulose (CMC)) was 106 % of control and the T/C (dose: 1.67 mg/kg/injection, schedule: Q#A X014 (ip), vehicle: carboxymethylcellulose (CMC)) was 82 % of control. The T/C (dose: 3.35 mg/kg/injection, schedule: Q#A X014 (ip), vehicle: carboxymethylcellulose (CMC)) was 73 % of control, the T/C (dose: 6.25 mg/kg/injection, schedule: Q01DX007 (ip), vehicle: other) was 111 % of control and the T/C (dose: 12.5 mg/kg/injection, schedule: Q01DX007 (ip), vehicle: other) was 98 % of control.
